Laboratory results taken from paper PMC8977893 (Frontiers in Cell and Developmental Biology, 2022).
“And” between values parts separate entries of the source, which are not always exact repeats. Equal entries are not always repeated.

Tests used:
human platelets [1] = format: cell-based; settings: fibrinogen 0.5 to 2 mg/ml before PrP(106–126) 20 µM; 1 mM Ca2+
human platelets [2] = format: cell-based; settings: fibrinogen 2 mg/ml; PrP 20 µM
[3] = system: calpain in washed human platelets; format: cell-based
talin in human platelets = format: cell-based
SH-SY5Y cells [4] = format: cell-based, human
SH-SY5Y cells [5] = format: cell-based, human; remark: listed apart in the source
SH-SY5Y cells [6] = format: cell-based, human; remark: listed apart in the source
[7] = molecular target: fibrinogen from human plasma (human, UniProt P02671 36-866; P02675 45-491; P02679 27-453); test: SPR; settings: both partners purified

Q: “fibrinogen: thrombogenic plasma protein fibrinogen from human plasma (Sigma #F4883)” was tested. Which “effect of fibrinogen pretreatment on prion-induced rise in [Ca2+]i” value (human platelets [1]) did it give?
A: Its value is “attenuated prion-induced rise in [Ca^2+]i in a dose-dependent manner”.

Q: And the “effect of prior fibrinogen exposure on prion-induced extracellular vesicle shedding” value (human platelets [2])?
A: The value was “completely thwarted”.

Q: And the “drop in calpain activity on fibrinogen preincubation” value [3]?
A: Its value is 30%.

Q: What about the “effect of fibrinogen on prion-mediated cleavage of talin” value (talin in human platelets; fibrinogen 2 mg/ml preincubation, immunoblot, 190 kDa product) of the same molecule?
A: Its value is “completely prevented prion-mediated cleavage of talin”.

Q: What about the “Cell line MTT (viability, Vehicle = 100)” value (SH-SY5Y cells [4]) of the same molecule?
A: The value was 101.27 and 76.19 and 118.37.

Q: What about the “effect of fibrinogen preincubation on PrP-induced loss of viability” value (SH-SY5Y cells [4]; 48 h) of the same molecule?
A: The value was “completely restored”.

Q: And the “abrogation of the PrP-induced FSC increase by prior fibrinogen treatment” value (SH-SY5Y cells [5])?
A: The value was 16.34% ± 17.85.

Q: And the “attenuation of the rise in ΔΨm on preincubation with fibrinogen” value (SH-SY5Y cells [6])?
A: The value was 1.7 fold.

Q: `C[S+](C)[O-]` [DMSO, dimethylsulfoxide, reference compound] was tested. Which “Cell line MTT (viability, Vehicle = 100)” value (SH-SY5Y cells [4]) did it give?
A: The value was 15.72 and 26.11 and 18.47.

Q: With `CNc1ccc2oc(C[C@H]3O[C@@]4(CC[C@H]3C)O[C@H]([C@H](C)C(=O)c3ccc[nH]3)[C@H](C)C[C@H]4C)nc2c1C(=O)O` [A23187, reference compound] as the molecule, how does the “calpain activity in platelets (in words)” value [3] read?
A: The value was “significant enhancement in calpain activity”.

Q: What about the “proteolysis of talin (235 kDa to 190 kDa fragment)” value (talin in human platelets) of the same molecule?
A: The value was “complete proteolysis of talin”.

B1: PrP(106–126) (peptide)
peptide: KTNMKHMAGAAAAGAVVGGLG
notes: also called prion peptide; prion
Q: Which Kd [7] does the source give for B1 here?
A: Its Kd is 512 ± 89 nM.
